Results on 1 molecule are retold here after publication PMC10102062, “Effects of DPTQ, a novel positive allosteric modulator of the dopamine D1 receptor, on spontaneous eye blink rate and spatial working memory in the nonhuman primate” (Psychopharmacology, 2023).

One data set has as its system rhesus monkeys. The data set is described as follows: Spontaneous eye blink rate, cumulative dosing. The class given is in vivo, rhesus monkey. An excerpt: Eleven 5–6-year-old, male rhesus monkeys (Chengdu Ping, An Animal Breeding and Research Base, Sichuan Province, China) with an average weight of 4.83 kg were included in the study. The animals were randomly divided into three groups, DPTQ higher cumulative dose group (n = 4); DPTQ lower cumulative dose group (n = 3); and vehicle (20% Captisol (CyDex Pharmaceuticals, Inc., KS) in NaPO4 buffer) group (n = 4). The D1 agonist SKF82958 was included as a positive control; the results for this compound (not shown here) were recently published together with data for a different D1PAM (DETQ, see Bruns et al. [2018]). The D1 selective antagonist SCH39166 hydrobromide (Cat No.: 2299, Batch No.: 3A/129719) was purchased from Tocris, MN, and was prepared in Millipore pure water with the injection volume 0.2 ml/kg. The D1 antagonist was dosed 15 min before vehicle or DPTQ (n = 4 animals per group).
Spontaneous eye blinking rate was measured during observational experiments conducted in a specially constructed monkey chair (Mason et al. [2019]). A U-shaped neck plate that helped to fixate the orientation of the head was used to facilitate observation of eye blink rate response. A compact video camera (Panasonic/wv-cp480/CH) on a tripod was positioned in front of the seated monkey. Two camera images were combined by video collector (Color QUAD system) and transferred to the EthoVision software (Noldus, Leesburg, VA) on the computer for on-line viewing and recording.
Two weeks before testing, monkeys were trained daily to sit in the monkey chair for two 2-h periods with food reward. During post-training test sessions conducted between 9:00 am and 4:30 pm every day, each monkey was studied for nine consecutive 15-min components. Each 15-min block consisted of a 10-min habituation period followed by a 5-min period during which eye blinking was counted. […] Observers blind to the treatment conditions later scored each 5-min videotaped session. An eye blink was defined as a visible, rapid opening and closing of the eyelid. Two observers independently confirmed the measurement with reliability > 90%.
The effects of different D1 ligands on spontaneous eye blink rate were studied by a cumulative dosing procedure (Jutikiewicz and Bergman 2004). Active compound or vehicle (Captisol 20% w/v NaPO4 buffer) was administered after obtaining two baseline eye blink recordings. The ligand was given in random order to different monkeys of each group as described above. To study dose response and time course, incremental doses of DPTQ were administrated at the end of 15-min components of each test session.
DPTQ (free base, see Hao et al. [2019]) was supplied by Eli Lilly Company. Captisol (Lot No.: NC-04A-05034) was prepared as follows: Captisol 20% w/v NaPO4 buffer 25 mM, pH 8. The injection volume for DPTQ was 0.5 ml/kg IM. DPTQ at 0.1 mg/kg, 0.5 mg/kg, and 1 mg/kg were dosed as clear solution, while the 5 mg/kg and 10 mg/kg doses were formulated as fine suspensions. The above vehicle solution was stored at 4℃ in a refrigerator and restored to room temperature before use. When preparing DPTQ fresh daily, a portion of the vehicle (20% Captisol) was added to the compound and stirred to wet, followed by addition of the remainder of the vehicle and mixing until the solution became homogeneous. The suspension was then sonicated on an ice bath for 40 min to reduce particle size. Animals were dosed while in the chair.
Results for each monkey were expressed as the rate of eye blinking (blinks per minute) averaged over each 5-min testing epoch. The effects of vehicle and D1 PAM on eye blinking were averaged for each group of monkeys and expressed as mean ± SE. The effects of DPTQ and vehicle were analyzed with two-way ANOVA (D1 PAM and time) followed by Bonferroni post hoc test (GraphPad Prism, San Diego CA).

A further data set concerns the target D2 receptor (Homo sapiens, UniProt P14416). The data set can be described thus: Broad screening binding study with 3[H]-raclopride. The following applies: 3[H]-raclopride as ligand; unpublished findings.
A further data set concerns the target T1, mouse D1 receptor (Mus musculus, UniProt Q61616).
T1 construct: expressed in transfected cells; host or cells: HEK293 (transient, Jump-In vector)
The data set is described as follows: cAMP assay: potentiation of EC20 dopamine in transiently transfected HEK293 cells. The data set is classed as cell-based. The settings on record: mouse D1, HEK293 transient, n = 4. On the procedure:
(§1) The human, rhesus monkey, dog, or mouse D1 receptor was cloned into the Jump-In vector system (Life Technologies Corp, CA) and transiently transfected into HEK293 cells. Increases in cAMP by DPTQ (free base, Eli Lilly) were measured in the presence of an EC20 concentration of dopamine. The EC50 values for each species along with % max stimulation (where dopamine max stimulation equals 100%) are presented in Table 1. These in vitro studies were performed at Eli Lilly and Company, Indianapolis, in USA. For further details on the measurement of effects on cAMP accumulation in these transiently transfected cells, see Hao et al. ([2019]).

Another data set concerns the target T2, human D1 receptor (Homo sapiens, UniProt P21728).
T2 construct: expressed in transfected cells; host or cells: HEK293 (transient, Jump-In vector)
Described as above. The class given is cell-based. The following applies: human D1, HEK293 transient, n = 4. On the procedure:
as §1

Another data set concerns dog D1 receptor. The data set is described as above. The data set is classed as cell-based. The following applies: dog D1, HEK293 transient, n = 4. As for the experimental part: as §1
Data set [1] concerns the target T3, rhesus monkey D1 receptor (Macaca mulatta, UniProt O77680).
T3 construct: expressed in transfected cells; host or cells: HEK293 (transient, Jump-In vector)
Described as above. The class given is cell-based. The settings on record: rhesus D1, HEK293 transient, n = 4. As for the experimental part: as §1

Data set [2] in a line: Brain penetration, unbound brain/plasma ratio and unbound ligand fraction. The following applies: J. Cramer, unpublished data.
For a further data set, the system named is human D1. Also on record: method as in Hao et al. [2019]. The settings on record: stably transfected human D1 cloned cells; ref Hao et al. [2019]; read-out: EC50 for potentiation of the dopamine-induced increase in cAMP; cited from earlier work.

Structures are written as SMILES.

T2 sequence (P21728 whole entry): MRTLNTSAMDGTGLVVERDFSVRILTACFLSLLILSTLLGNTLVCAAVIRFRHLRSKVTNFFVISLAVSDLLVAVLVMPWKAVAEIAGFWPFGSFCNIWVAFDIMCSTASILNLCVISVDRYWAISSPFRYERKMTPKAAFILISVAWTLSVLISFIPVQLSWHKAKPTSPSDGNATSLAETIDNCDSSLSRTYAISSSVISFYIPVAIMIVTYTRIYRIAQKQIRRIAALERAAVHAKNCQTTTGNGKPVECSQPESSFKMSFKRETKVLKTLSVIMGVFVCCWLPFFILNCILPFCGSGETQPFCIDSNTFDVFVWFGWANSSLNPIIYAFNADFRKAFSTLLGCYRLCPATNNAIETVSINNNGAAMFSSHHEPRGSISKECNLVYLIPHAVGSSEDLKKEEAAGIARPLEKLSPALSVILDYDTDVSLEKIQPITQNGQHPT
T1 sequence (Q61616 whole entry): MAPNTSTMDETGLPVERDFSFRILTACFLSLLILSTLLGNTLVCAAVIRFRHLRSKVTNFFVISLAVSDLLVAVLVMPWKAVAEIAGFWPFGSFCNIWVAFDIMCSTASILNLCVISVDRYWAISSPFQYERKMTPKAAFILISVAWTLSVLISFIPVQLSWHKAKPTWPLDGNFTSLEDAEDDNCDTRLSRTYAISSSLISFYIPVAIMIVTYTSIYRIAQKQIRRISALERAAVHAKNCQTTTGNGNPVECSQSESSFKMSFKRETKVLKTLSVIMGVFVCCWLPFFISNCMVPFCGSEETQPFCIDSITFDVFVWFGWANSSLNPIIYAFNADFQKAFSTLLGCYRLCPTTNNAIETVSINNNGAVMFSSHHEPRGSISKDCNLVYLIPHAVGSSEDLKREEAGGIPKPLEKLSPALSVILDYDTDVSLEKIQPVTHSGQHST
T3 sequence (O77680 whole entry): as the sequence (P21728 whole entry) above, with N311I counted along it
D2 receptor, sequence (P14416 whole entry): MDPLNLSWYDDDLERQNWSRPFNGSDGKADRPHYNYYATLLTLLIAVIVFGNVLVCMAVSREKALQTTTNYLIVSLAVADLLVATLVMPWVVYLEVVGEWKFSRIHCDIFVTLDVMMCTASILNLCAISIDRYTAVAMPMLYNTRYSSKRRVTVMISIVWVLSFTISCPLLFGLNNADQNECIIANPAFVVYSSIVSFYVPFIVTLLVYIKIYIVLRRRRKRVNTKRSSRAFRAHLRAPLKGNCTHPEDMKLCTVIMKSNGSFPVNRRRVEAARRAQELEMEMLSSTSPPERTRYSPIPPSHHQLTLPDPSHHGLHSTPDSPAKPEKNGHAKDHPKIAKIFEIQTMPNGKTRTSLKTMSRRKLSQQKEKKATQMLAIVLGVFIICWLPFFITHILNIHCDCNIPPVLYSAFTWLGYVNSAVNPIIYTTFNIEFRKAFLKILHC

On to `C[C@H]1c2cccc(CC(C)(C)O)c2C[C@H](CO)N1C(=O)Cc1c(Cl)cccc1Cl` [DPTQ], for which the “Increase in eye blink rate after SCH39166 pretreatment” value in the data set on rhesus monkeys (DPTQ 0.5, 5, 10 mg/kg cumulative, SCH39166 0.03 mg/kg IM 15 min before) is “small, non-significant”. Moreover, in the data set with rhesus monkeys (both high and lower cumulative doses, clear effect only at higher dose at 30 min), the Oral movement entry is reported as “some degree of oral movement such as tongue protrusion”. The “Spontaneous eye blink rate vs vehicle” value in the data set on rhesus monkeys (higher cumulative dose 0.5, 5 and 10 mg/kg IM, at 30, 45, 60 and 75 min) was “significant increases”; in the data set on rhesus monkeys (lower cumulative dose 0.1, 1 and 5 mg/kg IM, only at 45 and 60 min), “small but significant”. For the same molecule, the inhibition constant (Ki) at D2 receptor is above 5.6 µM. The EC50 on mouse D1 receptor was 534 nM; at human D1 receptor, 22.9 nM; in the data set on dog D1 receptor, 21.5 nM; in data set [1] it was 38 nM; in the data set with human D1, 76 nM. Further, the “Max stimulation (% of max DA)” value on mouse D1 receptor was 41 % of max DA; on human D1 receptor it was 77 % of max DA; with dog D1 receptor, 88 % of max DA; in data set [1] it was 82 % of max DA. Also, the “Unbound brain vs unbound plasma concentration ratio” value in data set [2] is “about 0.3”. Besides, the Unbound ligand fraction in data set [2] turned out to be 0.068.
